The values that follow come from ChEMBL document CHEMBL2331553, “Discovery of N-[[1-[2-(tert-butylcarbamoylamino)ethyl]-4-(hydroxymethyl)-4-piperidyl]methyl]-3,5-dichloro-benzamide as a selective T-type calcium channel (Cav3.2) inhibitor” (Bioorg Med Chem Lett, 2013).

In series [1] the target is T1, Voltage-dependent T-type calcium channel subunit alpha-1H (Homo sapiens, UniProt O95180). Description: Inhibition of human T-type calcium channel Cav3.2 expressed in T-Rex293 cells by whole cell patch clamp assay. Format: cell-based, HEK293.
T1 sequence (O95180 whole entry): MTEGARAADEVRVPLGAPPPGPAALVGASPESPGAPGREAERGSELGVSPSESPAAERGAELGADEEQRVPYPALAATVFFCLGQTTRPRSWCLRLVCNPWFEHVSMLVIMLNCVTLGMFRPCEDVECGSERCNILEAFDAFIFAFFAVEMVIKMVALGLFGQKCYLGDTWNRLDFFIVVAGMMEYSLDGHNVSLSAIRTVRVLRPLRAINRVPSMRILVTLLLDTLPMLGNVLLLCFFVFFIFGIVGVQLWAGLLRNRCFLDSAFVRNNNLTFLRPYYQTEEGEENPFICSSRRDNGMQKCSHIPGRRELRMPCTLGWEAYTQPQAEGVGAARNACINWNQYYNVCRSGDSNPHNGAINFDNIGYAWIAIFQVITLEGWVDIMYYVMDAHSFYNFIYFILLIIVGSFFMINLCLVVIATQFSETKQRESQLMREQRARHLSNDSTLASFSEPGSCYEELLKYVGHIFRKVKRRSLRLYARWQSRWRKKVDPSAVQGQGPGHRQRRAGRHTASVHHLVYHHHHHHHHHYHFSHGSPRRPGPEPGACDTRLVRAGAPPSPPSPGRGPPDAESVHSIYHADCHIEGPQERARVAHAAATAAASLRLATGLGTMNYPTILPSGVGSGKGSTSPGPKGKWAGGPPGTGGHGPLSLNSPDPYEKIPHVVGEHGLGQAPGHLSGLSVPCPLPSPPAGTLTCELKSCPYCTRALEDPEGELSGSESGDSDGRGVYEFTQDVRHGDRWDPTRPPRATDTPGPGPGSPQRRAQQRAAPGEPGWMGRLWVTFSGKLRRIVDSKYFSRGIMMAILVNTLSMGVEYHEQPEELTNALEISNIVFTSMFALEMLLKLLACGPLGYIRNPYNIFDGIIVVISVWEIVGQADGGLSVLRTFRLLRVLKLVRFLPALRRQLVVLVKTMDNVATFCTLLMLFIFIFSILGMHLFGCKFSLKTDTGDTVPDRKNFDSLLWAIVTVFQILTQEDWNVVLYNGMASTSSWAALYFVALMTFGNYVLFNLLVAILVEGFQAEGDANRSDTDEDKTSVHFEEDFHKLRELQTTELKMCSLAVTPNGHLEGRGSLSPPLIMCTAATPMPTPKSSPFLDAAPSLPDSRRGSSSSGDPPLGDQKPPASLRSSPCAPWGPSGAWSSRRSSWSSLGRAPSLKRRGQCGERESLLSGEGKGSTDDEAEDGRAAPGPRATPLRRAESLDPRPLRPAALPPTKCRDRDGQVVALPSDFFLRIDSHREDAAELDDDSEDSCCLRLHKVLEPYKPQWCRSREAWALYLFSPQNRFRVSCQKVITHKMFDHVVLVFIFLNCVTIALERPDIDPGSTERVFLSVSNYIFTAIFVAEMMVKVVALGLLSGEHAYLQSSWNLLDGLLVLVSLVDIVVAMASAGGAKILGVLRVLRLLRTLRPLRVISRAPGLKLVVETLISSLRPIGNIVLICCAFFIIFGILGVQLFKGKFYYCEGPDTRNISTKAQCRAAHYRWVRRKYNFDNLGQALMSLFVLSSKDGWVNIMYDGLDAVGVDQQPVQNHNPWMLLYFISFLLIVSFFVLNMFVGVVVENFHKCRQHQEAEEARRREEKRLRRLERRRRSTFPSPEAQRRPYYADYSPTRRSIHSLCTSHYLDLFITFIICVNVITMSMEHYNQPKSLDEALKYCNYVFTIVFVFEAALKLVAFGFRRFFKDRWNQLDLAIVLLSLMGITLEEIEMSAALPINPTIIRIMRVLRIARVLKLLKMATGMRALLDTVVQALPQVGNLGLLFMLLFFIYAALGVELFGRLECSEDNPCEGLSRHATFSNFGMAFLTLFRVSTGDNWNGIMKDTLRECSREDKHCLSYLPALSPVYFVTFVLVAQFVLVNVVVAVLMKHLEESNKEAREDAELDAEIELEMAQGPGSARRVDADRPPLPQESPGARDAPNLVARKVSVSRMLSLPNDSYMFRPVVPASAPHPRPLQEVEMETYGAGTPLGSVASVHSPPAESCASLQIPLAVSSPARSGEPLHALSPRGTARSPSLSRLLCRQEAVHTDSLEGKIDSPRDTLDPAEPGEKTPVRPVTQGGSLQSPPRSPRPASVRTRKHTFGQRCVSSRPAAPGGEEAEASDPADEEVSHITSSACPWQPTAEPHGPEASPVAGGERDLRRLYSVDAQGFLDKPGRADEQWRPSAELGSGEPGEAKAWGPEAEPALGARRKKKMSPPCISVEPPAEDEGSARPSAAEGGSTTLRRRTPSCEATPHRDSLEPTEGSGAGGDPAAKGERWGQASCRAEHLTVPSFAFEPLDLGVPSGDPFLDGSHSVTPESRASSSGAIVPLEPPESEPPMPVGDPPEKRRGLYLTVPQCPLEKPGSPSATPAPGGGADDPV
The subject of series [2] is Liver microsomes. Description: Drug metabolism in human liver microsomes assessed as glutathione-adduct reactive metabolite formation at 1 mg/ml after 30 mins. Format: ADME, Microsome. The settings on record: 0.5 h. (Liver microsomes are vesicles of endoplasmic reticulum, rich in cytochrome P450 enzymes.)
Series [3] has as its target Cytochrome P450 2D6 (Homo sapiens, UniProt P10635). Description: Inhibition of human recombinant CYP2D6-mediated 7-methoxy-4(aminomethyl)-coumarine degradation. Format: ADME.
Series [4] addresses Voltage-gated inwardly rectifying potassium channel KCNH2 (Homo sapiens, UniProt Q12809). Description: Inhibition of human ERG expressed in CHO cells by IONWORKS assay. Format: cell-based.
Series [5] in a line: Intrinsic clearance in human liver microsomes at 1 mg/ml after 45 mins. Format: ADME, Microsome. The following applies: read-out: CLH.
A short description of series [6]: Ratio of unbound concentration in brain to unbound concentration in plasma in Sprague-Dawley rat at 2 umol/kg/hr, iv administered as infusion measured after 4 hrs. The following applies: brain and plasma (unbound concentrations), read-out: K(p,uu,brain). Format: ADME, organism-based.
Series [7] addresses T2, A-type voltage-gated potassium channel KCND3 (Homo sapiens, UniProt Q9UK17).
T2 sequence (Q9UK17 whole entry): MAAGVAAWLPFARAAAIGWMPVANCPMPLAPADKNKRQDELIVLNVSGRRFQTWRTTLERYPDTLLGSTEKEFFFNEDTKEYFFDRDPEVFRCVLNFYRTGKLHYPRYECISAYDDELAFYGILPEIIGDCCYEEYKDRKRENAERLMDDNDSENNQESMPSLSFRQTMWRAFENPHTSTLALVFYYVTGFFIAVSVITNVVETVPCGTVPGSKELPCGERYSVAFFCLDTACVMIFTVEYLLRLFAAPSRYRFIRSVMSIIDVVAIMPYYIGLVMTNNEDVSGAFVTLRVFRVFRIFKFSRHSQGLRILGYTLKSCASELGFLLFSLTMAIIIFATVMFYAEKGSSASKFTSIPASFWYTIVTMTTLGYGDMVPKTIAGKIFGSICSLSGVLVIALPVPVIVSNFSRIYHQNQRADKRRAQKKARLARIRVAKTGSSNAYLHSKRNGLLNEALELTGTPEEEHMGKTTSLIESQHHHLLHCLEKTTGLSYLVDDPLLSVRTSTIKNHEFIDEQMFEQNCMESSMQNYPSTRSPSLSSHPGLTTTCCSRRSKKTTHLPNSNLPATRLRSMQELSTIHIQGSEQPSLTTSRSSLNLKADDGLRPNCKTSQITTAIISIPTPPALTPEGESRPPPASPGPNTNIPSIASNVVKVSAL
Description: Inhibition of human Kv4.3 channel expressed in CHO cells by IONWORKS patch clamp assay. The series is classed as cell-based.

Series [8] has as its target Voltage-gated potassium channel, IKs; KCNQ1(Kv7.1)/KCNE1(MinK) (Homo sapiens, UniProt P15382+P51787). Description: Inhibition of human IKs channel expressed in CHO cells by IONWORKS patch clamp assay. The series is classed as cell-based. Background: In patch-clamp work, channel activity is measured electrically.
A short description of series [9]: Solubility of the compound at pH 7.4. Format: physicochemical. The settings on record: buffer.
Series [10] can be described thus: Clearance in beagle dog at 1 mg/kg, iv. Format: ADME, organism-based, Canis lupus familiaris. Details: dose 1 mg/kg, route intravenous; call rule not given here. The following applies: in vivo.
Series [11] can be described thus: Oral bioavailability in beagle dog at 3 mg/kg. Format: ADME, organism-based, Canis lupus familiaris. The settings on record: in vivo.
Series [12] concerns the target T3, Potassium/sodium hyperpolarization-activated cyclic nucleotide-gated channel 4 (Homo sapiens, UniProt Q9Y3Q4).
T3 sequence (Q9Y3Q4 whole entry): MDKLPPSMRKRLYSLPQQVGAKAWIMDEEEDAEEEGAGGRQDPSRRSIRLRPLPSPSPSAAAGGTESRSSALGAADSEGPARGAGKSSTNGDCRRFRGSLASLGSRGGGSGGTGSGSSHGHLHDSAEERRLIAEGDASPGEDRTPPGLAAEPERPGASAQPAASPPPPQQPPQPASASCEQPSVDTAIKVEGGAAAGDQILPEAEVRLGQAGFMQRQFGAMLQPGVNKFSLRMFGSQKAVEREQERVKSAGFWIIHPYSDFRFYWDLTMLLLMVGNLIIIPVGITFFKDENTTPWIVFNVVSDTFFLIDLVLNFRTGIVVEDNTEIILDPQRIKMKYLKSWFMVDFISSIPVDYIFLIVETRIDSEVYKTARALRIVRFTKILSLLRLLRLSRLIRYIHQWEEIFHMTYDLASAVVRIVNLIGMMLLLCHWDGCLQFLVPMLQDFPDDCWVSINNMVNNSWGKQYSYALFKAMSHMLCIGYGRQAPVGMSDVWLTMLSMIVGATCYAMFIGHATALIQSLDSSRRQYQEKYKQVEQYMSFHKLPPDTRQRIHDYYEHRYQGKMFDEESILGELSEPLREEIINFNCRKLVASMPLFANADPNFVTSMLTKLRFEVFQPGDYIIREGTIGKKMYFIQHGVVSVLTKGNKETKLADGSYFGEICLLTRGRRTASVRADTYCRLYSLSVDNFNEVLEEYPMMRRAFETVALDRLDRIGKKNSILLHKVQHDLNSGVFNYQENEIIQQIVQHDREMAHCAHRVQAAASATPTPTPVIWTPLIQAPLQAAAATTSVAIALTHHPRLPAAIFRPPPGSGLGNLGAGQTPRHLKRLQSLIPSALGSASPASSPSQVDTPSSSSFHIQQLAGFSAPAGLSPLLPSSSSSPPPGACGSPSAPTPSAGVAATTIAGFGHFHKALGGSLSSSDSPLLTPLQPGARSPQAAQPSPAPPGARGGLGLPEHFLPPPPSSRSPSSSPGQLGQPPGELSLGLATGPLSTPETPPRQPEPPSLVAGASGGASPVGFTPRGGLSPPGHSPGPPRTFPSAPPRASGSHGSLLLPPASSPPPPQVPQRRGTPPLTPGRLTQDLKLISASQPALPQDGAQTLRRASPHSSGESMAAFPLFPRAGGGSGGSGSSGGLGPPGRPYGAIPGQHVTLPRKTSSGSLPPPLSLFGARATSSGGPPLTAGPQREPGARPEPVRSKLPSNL
Description: Inhibition of human HCN4 channel expressed in CHO cells by IONWORKS patch clamp assay. Format: cell-based.

In series [13] the test system is Canis familiaris. Description: Cardioprotective activity in iv dosed beagle dog atrial fibrillation model assessed as reduction in heart rate administered as infusion for over 20 mins followed by 60-mins washout period by ECG analysis relative to control. The series is classed as functional, organism-based. The settings on record: Canis lupus familiaris.
In series [14] the target is Voltage-dependent L-type calcium channel subunit alpha-1C (Homo sapiens, UniProt Q13936). Description: Inhibition of calcium channel Cav1.2 (unknown origin) expressed in CHO cells by IONWORKS patch clamp assay. The series is classed as cell-based.
For series [15], the target named is T1, Voltage-dependent T-type calcium channel subunit alpha-1H. Description: Inhibition of T-type calcium channel Cav3.2 (unknown origin) by IONWORKS assay.
For series [16], the target named is Sodium channel protein type 5 subunit alpha (Homo sapiens, UniProt Q14524). Description: Inhibition of human Nav1.5 channel expressed in CHO cells by IONWORKS patch clamp assay. The series is classed as cell-based.

pIC50: −log10 of the molar value. ≈ marks a conversion by molar mass, not a printed value.

Chain of Voltage-gated inwardly rectifying potassium channel KCNH2 (Q12809 whole entry): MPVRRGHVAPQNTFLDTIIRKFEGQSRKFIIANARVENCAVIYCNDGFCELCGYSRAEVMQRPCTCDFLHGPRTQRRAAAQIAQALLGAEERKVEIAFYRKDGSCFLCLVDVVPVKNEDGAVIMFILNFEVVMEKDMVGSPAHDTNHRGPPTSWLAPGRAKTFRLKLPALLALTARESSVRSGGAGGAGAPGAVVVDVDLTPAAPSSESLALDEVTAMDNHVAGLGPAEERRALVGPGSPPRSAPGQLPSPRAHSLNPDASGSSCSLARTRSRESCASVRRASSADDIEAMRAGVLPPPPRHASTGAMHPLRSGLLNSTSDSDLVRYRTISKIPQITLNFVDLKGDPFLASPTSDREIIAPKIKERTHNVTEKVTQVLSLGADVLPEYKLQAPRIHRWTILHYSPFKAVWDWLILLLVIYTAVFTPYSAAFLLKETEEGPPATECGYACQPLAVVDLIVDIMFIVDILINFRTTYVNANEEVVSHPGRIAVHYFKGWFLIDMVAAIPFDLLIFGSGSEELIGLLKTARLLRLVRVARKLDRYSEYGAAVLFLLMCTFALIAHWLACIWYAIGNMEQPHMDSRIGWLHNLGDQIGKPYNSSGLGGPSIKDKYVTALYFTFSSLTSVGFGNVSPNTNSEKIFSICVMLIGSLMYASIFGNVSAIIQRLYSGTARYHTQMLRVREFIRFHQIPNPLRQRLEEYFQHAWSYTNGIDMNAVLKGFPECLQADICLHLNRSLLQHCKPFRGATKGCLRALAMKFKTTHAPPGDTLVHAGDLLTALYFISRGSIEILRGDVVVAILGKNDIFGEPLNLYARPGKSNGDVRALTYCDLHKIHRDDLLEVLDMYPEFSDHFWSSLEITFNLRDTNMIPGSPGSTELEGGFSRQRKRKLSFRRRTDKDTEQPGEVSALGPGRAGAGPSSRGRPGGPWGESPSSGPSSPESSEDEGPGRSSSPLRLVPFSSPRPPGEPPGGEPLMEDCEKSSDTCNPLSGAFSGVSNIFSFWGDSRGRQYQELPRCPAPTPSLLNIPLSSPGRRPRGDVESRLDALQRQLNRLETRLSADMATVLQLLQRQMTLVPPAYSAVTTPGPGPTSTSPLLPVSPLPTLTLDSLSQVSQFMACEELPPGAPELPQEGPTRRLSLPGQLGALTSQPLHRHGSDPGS
Chain of Cytochrome P450 2D6 (P10635 whole entry): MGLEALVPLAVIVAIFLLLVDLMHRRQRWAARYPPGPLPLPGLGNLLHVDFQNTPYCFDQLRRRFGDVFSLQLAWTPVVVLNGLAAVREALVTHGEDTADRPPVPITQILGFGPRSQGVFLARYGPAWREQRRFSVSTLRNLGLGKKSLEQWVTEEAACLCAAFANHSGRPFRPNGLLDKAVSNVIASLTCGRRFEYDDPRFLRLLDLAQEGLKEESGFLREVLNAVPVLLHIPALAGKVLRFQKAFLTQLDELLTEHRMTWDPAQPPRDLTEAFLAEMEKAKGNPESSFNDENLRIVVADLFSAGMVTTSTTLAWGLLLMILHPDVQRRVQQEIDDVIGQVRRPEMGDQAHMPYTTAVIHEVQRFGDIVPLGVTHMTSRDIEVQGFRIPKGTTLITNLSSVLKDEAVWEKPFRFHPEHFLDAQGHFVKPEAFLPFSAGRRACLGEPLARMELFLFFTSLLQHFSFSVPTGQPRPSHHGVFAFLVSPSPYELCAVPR
Chain of Voltage-gated potassium channel, IKs; KCNQ1(Kv7.1)/KCNE1(MinK) (P51787 whole entry): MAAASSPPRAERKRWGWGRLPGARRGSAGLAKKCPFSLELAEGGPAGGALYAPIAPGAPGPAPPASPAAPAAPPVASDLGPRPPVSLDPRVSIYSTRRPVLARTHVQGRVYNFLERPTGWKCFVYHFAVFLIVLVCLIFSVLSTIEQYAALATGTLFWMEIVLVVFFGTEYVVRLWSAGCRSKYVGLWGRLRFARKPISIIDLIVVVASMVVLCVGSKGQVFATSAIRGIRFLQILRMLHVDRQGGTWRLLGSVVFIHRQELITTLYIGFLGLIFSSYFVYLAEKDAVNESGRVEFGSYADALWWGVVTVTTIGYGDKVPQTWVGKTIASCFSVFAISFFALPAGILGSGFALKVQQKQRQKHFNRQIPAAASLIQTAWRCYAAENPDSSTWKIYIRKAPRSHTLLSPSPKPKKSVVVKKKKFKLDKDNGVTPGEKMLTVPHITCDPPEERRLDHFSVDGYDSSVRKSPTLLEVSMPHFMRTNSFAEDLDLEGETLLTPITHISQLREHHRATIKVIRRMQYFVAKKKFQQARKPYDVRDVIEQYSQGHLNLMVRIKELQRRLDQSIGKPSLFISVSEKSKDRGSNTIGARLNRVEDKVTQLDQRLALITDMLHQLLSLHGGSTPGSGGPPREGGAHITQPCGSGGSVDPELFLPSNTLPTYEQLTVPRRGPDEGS

`CC(C)(C)NC(=O)NCCN1CCC(NC(=O)c2cc(Cl)cc(Cl)c2)C1` (configuration not stated): the pIC50 (in general, −log10 of the IC50, conventionally taken in molar units) in series [1] is 6.10; in series [3], 5.59; in series [4], 5.18. In addition, the Drug metabolism entry in series [2] is reported as “Active”. Also, the microsomal CLint in series [5] worked out at 15 µL/min/mg.
With `CC(C)(C)NCCN1CCN(CC(=O)NC23CC4CC(CC(C4)C2)C3)CC1`, the pIC50 in series [1] was 5.31.
With `CC(C)(C)NC(=O)CN1CCN(CC(=O)NC23CC4CC(CC(C4)C2)C3)CC1`, in series [1], the pIC50 is 6.00. Also, the Kp uu at 4 h in [6] stood at 0.4.
Regarding `CC(C)(C)NC(=O)NCCN1CCCC(CNC(=O)c2cc(Cl)cc(Cl)c2)C1` (configuration not stated), the results for the pIC50 in [1] and in series [3] were 6.30 and 5.80, respectively. Moreover, the Drug metabolism entry in series [2] is “Not Active”. Also, in series [5], the microsomal CLint is 16 µL/min/mg.
On to `CC(C)(C)NC(=O)NCCN1CCN(CC(=O)Nc2cc(Cl)cc(Cl)c2)CC1`, for which the values for the pIC50 in series [1], in series [3] and in [4] were 6.52, 5.10 and 5.80, respectively. For the same compound, in series [5], the microsomal CLint came to 29 µL/min/mg.
`CC(C)(C)CS(=O)(=O)NCCN1CCN(CC(=O)NC23CC4CC(CC(C4)C2)C3)CC1`: in series [1], the pIC50 is 6.05. The Kp uu at 4 h in [6] is 0.3.
`COCC(=O)O[C@]1(CCN(C)CCCc2nc3ccccc3[nH]2)CCc2cc(F)ccc2[C@@H]1C(C)C` [MIBEFRADIL]: in [2], the Drug metabolism entry is recorded as “Active”. Further, in series [3], the pIC50 is 7.20. Further, in series [5], the microsomal CLint was determined as 56.5 µL/min/mg.
Consider `CC(C)(C)C(=O)NCCCN1CCN(CC(=O)NC23CC4CC(CC(C4)C2)C3)CC1`, for which the pIC50 in [1] was 5.89.
For `CC(C)(C)NC(=O)NCCN1CCOC(CNC(=O)c2cc(Cl)cc(Cl)c2)C1` (configuration not stated), the pIC50 in [1] was 5.48; in series [3], less than 4.70; in [4], less than 4.48. Moreover, the Drug metabolism result in [2] is “Active”. The microsomal CLint in series [5] was 47 µL/min/mg.
For `CC(C)(C)NC(=O)NCCCN1CCN(CC(=O)NC23CC4CC(CC(C4)C2)C3)CC1`, in series [1], the pIC50 was 5.92.
Regarding `CC(C)(C)NC(=O)NCCN1CC(NC(=O)c2cc(Cl)cc(Cl)c2)C1`, the pIC50 in [1] was 6.10; in series [3] it was 5.35. Moreover, the Drug metabolism result in series [2] is on record as “Active”. Further, in series [5], the microsomal CLint amounted to 4 µL/min/mg.
For the compound `CC(C)(C)C(=O)NCCN1CCN(CC(=O)NC23CC4CC(CC(C4)C2)C3)CC1`, the pIC50 in [1] is 5.52.
`CC(C)(C)NC(=O)NCCN1CCC(O)(CNC(=O)c2cc(Cl)cc(Cl)c2)CC1`: the pIC50 was 6.22 in [1], 4.85 in series [3] and less than 4.48 in [4]. The Drug metabolism result in series [2] is “Active”. Further, the microsomal CLint in series [5] was found to be 6 µL/min/mg.
For `CC(C)(C)NC(=O)NCCN1CCC(CNC(=O)c2cc(Cl)cc(Cl)c2)C1` (configuration not stated), the pIC50 is 6.40 in series [1], 6.00 in series [3] and 5.24 in [4]. The Drug metabolism result in [2] is recorded as “Active”. For the same compound, in series [5], the microsomal CLint is less than 5 µL/min/mg.
As to `CC(C)(C)OC(=O)NCCN1CCN(CC(=O)NC23CC4CC(CC(C4)C2)C3)CC1`, the pIC50 in series [1] is 5.92.
Regarding `CC(C)(C)NC(=O)NCCN1CCC(CO)(CNC(=O)c2cc(Cl)cc(Cl)c2)CC1`, the pIC50 in [7] is less than 4.48; in series [1], 6.22; in series [3], 4.89; in [8], less than 4.48; in [12], less than 4.48; in series [4], less than 4.48. For the same compound, the pIC50 in [14] was less than 4.50; in [15], 5.92; in series [16], less than 4.48. Further, the Drug metabolism entry in [2] is “Not Active”. The solubility (as a rule, how much of the substance goes into solution per volume) in series [9] is 460 µM (≈ 211 µg/mL). Also, in series [10], the clearance – broadly, the rate of elimination divided by the concentration – is 17 mL/min/kg. The bioavailability (in general, the share of a dose that reaches the circulation, judged against a reference dose that is usually intravenous) in [11] turned out to be 22%. Besides, in series [13], the Activity entry is “Dose-dependent effect”. Further, the microsomal CLint in series [5] was 7 µL/min/mg.
In the case of `CC(C)(C)NC(=O)NCCN1CCCC(NC(=O)c2cc(Cl)cc(Cl)c2)C1` (configuration not stated), the pIC50 in [1] is 6.30; in series [3], 5.08; in [4], 5.39. Moreover, the Drug metabolism entry in series [2] is on record as “Active”. For the same compound, the microsomal CLint in [5] was found to be 48 µL/min/mg.
With `CC(C)(C)NC(=O)NCCN1CCN(CC(=O)NC23CC4CC(CC(C4)C2)C3)CC1`, the pIC50 in [1] is 6.30; in series [3], less than 4.70; in [4], less than 4.48. Further, the microsomal CLint in series [5] stood at 100 µL/min/mg. Further, the Kp uu at 4 h in [6] worked out at 0.02.
On to `CC(C)(C)NC(=O)NCCN1CCC(CNC(=O)c2cc(Cl)cc(Cl)c2)CC1`, for which the values for the pIC50 in series [1], in series [3] and in series [4] were 6.30, 5.47 and 4.89, respectively. The Drug metabolism result in [2] was “Not Active”. In series [5], the microsomal CLint is less than 5 µL/min/mg.
Regarding `O=C(CN1CCN(CCC2CCOCC2)CC1)NC12CC3CC(CC(C3)C1)C2`, the Kp uu at 4 h in series [6] is 1.2.
With `CC(C)(C)S(=O)(=O)CCCN1CCN(CC(=O)NC23CC4CC(CC(C4)C2)C3)CC1`, the pIC50 in series [1] was 5.62. Also, the Kp uu at 4 h in [6] came out at 0.3.
